Reference: PMC10877577 (ACS Chemical Biology, 2024)
Entries after “also recorded” stand apart in the source; their conditions may differ.

B1: aMinoC1: anti-minocycline single-domain antibody clone 1 from immunized alpaca, tested as sdAb-Fc (antibody, V domains shown)
VH: QVQLESGGGLVQPGSSLRLSCAASGRTFSSYNIGWFRQAPKEREFVAAISWSGARTYYADSVKGRFTISRDNAKNTVYLQMNSLKPEDTAVYSCAAGRGWGTEAILDYWGQGTQVSSA

Experiments:
[1] = test system: aMinoC22 sdAb; assay: SPR of related small molecules against aMinoC22; type: binding, alpaca; conditions: molecules closely related to minocycline
Description: (§1) Binding assays were carried out using 1x HBS-EP+ running buffer. Various concentrations (2.5 μM with 2-fold serial dilutions) of the analyte were injected for 150 s at 30 μL/min with 150 s dissociation time. Glycine-HCl (pH 2.0) was used as the regeneration buffer for the sensor chips. For the rechallenge experiment, aMinoC1 was immobilized on a CM5 sensor chip and CX7C peptide-Fc conjugates were loaded at 100 nM and injected as the analyte for 150 s at 30 μL/min. Following the injection of peptide-Fc, a small molecule at 1 μM was injected for 300 s at 30 μL/min, using dual injection function on a Biacore 8k instrument, to dissociate the peptide-Fc from the aMinoC1-peptide complex. The system was then washed using HBS-P^+ buffer for 300 s at 30 μL/min prior to rechallenge with peptide-Fc. The cycle was repeated three times following a final dissociation step of 300 s. For the alanine scanning experiments, the anti-minocycline antibody (sdAb-muIgG2a-Fc fusion) was captured on a Protein A series S sensor chip, to a density of 3000 RU. […] Glycine-HCl (pH 1.5) was used as the regeneration buffer. In each case, flow cell 1 was used for reference subtraction, and a “0 concentration” sensogram of buffer alone was used as a double reference subtraction to factor for drift. Data analysis was carried out using Biacore T200 Evaluation Software, version 3.0, and Biacore Insight evaluation software. […]

[2] = test system: aMinoC1 sdAb; assay: SPR of peptide-Fc or small-molecule analytes against aMinoC1; type: binding, alpaca; conditions: molecules closely related to minocycline
Description: as §1

[3] = test system: aMinoC1-peptide complex; assay: SPR rechallenge: small-molecule-driven dissociation of peptide-Fc from immobilized aMinoC1; type: binding; conditions: peptide-Fc 100 nM, small molecule 1 μM
Description: Binding assays were carried out using 1x HBS-EP+ running buffer. Various concentrations (2.5 μM with 2-fold serial dilutions) of the analyte were injected for 150 s at 30 μL/min with 150 s dissociation time. Glycine-HCl (pH 2.0) was used as the regeneration buffer for the sensor chips. For the rechallenge experiment, aMinoC1 was immobilized on a CM5 sensor chip and CX7C peptide-Fc conjugates were loaded at 100 nM and injected as the analyte for 150 s at 30 μL/min. Following the injection of peptide-Fc, a small molecule at 1 μM was injected for 300 s at 30 μL/min, using dual injection function on a Biacore 8k instrument, to dissociate the peptide-Fc from the aMinoC1-peptide complex. The system was then washed using HBS-P^+ buffer for 300 s at 30 μL/min prior to rechallenge with peptide-Fc. The cycle was repeated three times following a final dissociation step of 300 s. For the alanine scanning experiments, the anti-minocycline antibody (sdAb-muIgG2a-Fc fusion) was captured on a Protein A series S sensor chip, to a density of 3000 RU. […] Glycine-HCl (pH 1.5) was used as the regeneration buffer. In each case, flow cell 1 was used for reference subtraction, and a “0 concentration” sensogram of buffer alone was used as a double reference subtraction to factor for drift. Data analysis was carried out using Biacore T200 Evaluation Software, version 3.0, and Biacore Insight evaluation software. The 1:1 Langmuir binding model was used to calculate the association (ka), dissociation (kd) rate constants, and equilibrium dissociation constant (KD).

[4] = test system: MinoCAR-transduced PBMC against SupT1-EGFR+ target cells; type: cell-based; conditions: 0.1, 1 and 10 μM, 24 h, 1:2 E/T
Description: Transduced CAR T cells were determined by staining for the transduction marker RQR8 and normalized by the addition of nontransduced T cells. Effector cells were cocultured with 5.0 × 10^4 number of target cells (SupT1-NT, SupT1-EGFR+, SKOV3-mKate) to achieve the desired effector cell to target ratio. […] Cocultures were incubated for 24–72 h at 37 °C and 5% CO2. After incubation, plates were centrifuged at 400g for 5 min, and the supernatant containing secreted cytokines was collected for cytokine analysis. Cells were stained with anti-hCD34-APC and anti-CD3-PeCy7 to differentiate effector T cells and target cells. Cells were washed with 300 μL o PBS and stained with SYTOX Blue Dead Cell Stain dye. The percentage of target cell survival was measured relative to the number of live target cells cocultured with nonspecific CAR T cells or nontransduced PBMCs.

[5] = target: TetRB; conditions: cited from earlier work
[6] = SPR of anti-minocycline sdAb-Fc clones binding to minocycline
Description: as §1

[7] = nanoDSF thermal unfolding of aMinoC1; type: physicochemical
Description: A dye-free protocol was used whereby the intrinsic fluorescence of tryptophan and tyrosine was measured by scanning samples at 330 and 350 nm to determine protein unfolding. […] Melting scan was carried out by setting the run at 1 °C/min temperature increments from 20 to 95 °C. Tm was calculated as first derivative of 350/330 nm ratio.

[8] = Isothermal titration calorimetry of aMinoC1 binding to minocycline; conditions: sdAb-Fc 2 μM titrated with minocycline 50 μM, 25 °C; read-out: KD (ITC)
Description: ITC measurements were performed using the PEAQ-ITC nonautomated (MicroCal) at 25 °C. The antibody sample was dialyzed overnight using 5 L of PBS (20 mM Na3PO4, 150 mM NaCl, pH 7.4). […] The concentration of the anti-minocycline sdAb (as murine IgG2a Fc fusion) was determined using extinction coefficients ε280 nm = 31,065 M^–1 cm^–1.

Molecule | binding to aMinoC22 (SPR) [1] | binding to aMinoC1 (SPR) [2] | GWARA-Fc dissociation from immobilized aMinoC1 on small-molecule injection [3] | peptide-Fc (HWAQA, PWAYS and QWAMM) dissociation from immobilised aMinoC1 on small-molecule injection [3] | effect of other small molecules on MinoCAR cytotoxicity [4] | Kd [5] [nM] | ka [6] [M⁻¹ s⁻¹] | kd [6] [s⁻¹] | first unfolding midpoint (Tm50) ([7]; aMinoC1 alone, PBS pH 7.4) [°C] | improvement of Tm50 with minocycline ([7]; minocycline 1 nM to 2.5 mM) | Tm50 on coincubation with minocycline ([7]; minocycline ranging from 1 nM to 2.5 mM) [°C] | Kd [8] [nM]
CN(C)[C@@H]1C(O)=C(C(N)=O)C(=O)[C@@]2(O)C(O)=C3C(=O)c4c(O)cccc4[C@@](C)(O)[C@H]3C[C@@H]12 [tetracycline] | Neither sdAb showed an interaction; also recorded: lack of binding | Neither sdAb showed an interaction; also recorded: lack of binding; also recorded: without cross-reactivity | No enhanced dissociation | No enhanced dissociation | not affected | 2.8 |  |  |  |  |  | 
B1 |  |  |  |  |  |  | 1.13e+06 | 0.036 | 79.5 | over 10 °C | 89.6 | 24.9
